From patent US20240239767A1 (AstraZeneca AB, priority 2022, published 2024)

How the values were obtained:
PCSK9 [1] = molecular target: T1, PCSK9 (Homo sapiens, UniProt Q8NBP7, G670E/V474I); assay: biochemical
Target sequence in this assay (Q8NBP7 with tags, fused parts or gaps V474I/G670E): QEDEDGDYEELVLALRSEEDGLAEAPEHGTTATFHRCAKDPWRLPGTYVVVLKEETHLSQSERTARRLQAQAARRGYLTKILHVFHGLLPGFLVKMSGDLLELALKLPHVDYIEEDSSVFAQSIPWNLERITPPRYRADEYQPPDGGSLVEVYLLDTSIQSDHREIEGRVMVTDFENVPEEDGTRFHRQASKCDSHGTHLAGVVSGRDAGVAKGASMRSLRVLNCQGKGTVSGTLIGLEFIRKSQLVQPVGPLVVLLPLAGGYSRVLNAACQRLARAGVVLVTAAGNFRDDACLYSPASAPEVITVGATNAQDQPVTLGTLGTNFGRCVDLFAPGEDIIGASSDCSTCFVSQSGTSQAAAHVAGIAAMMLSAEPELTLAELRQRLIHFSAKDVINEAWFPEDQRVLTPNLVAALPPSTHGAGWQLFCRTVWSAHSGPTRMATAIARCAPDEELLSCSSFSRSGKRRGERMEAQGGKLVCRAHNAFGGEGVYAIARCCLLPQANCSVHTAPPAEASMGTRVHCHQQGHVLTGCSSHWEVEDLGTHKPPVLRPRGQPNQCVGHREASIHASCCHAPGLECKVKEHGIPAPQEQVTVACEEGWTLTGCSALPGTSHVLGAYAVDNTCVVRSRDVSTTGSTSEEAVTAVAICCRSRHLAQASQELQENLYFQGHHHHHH

PCSK9 [2] = molecular target: T1, PCSK9; assay: cell-based
Target sequence in this assay (Q8NBP7 31-152): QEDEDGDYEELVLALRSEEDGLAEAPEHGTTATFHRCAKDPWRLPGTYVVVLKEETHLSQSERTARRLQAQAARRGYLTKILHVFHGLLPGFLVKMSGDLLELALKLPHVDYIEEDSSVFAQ
Target sequence in this assay (Q8NBP7 153-692 V474I/G670E): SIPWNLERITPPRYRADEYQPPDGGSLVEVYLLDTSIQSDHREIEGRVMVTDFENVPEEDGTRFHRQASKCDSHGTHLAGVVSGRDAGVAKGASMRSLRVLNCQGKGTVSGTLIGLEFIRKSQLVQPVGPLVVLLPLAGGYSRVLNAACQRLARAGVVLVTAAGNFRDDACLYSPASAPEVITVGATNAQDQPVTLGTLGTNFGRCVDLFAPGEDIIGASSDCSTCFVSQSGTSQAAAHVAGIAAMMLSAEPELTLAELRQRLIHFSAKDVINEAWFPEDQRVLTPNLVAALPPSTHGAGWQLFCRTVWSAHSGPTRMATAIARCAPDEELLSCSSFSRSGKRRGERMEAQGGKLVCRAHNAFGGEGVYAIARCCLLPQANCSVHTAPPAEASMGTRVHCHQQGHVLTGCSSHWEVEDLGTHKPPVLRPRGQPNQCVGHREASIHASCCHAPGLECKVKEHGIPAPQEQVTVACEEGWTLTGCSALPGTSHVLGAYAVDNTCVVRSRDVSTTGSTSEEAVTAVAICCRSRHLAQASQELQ
Description: This assay measures for PCSK9 antagonist activity based on a test compound's capacity to restore LDL-C uptake in HepG2 cells. The assay is based on exogenous PCSK9 and LDL-C complexed with a pH-sensitive dye. Outside the cells, at neutral pH, the pHrodo Red-LDL is dimly fluorescent but upon LDLR mediated endocytosis it fluoresces brightly. PCSK9 traffics the LDLR to intracellular degradation and reduces uptake of LDL-C. Inhibition of PCSK9 reduces LDLR degradation and the increased LDL-C uptake is quantified by fluorescence microscopy.
Cell medium: MEM supplemented with 10% FBS, 1× NEAA and Sodium Pyruvate
Assay medium: OptiMem supplemented with penicillin/streptomycin
Cells: HepG2 (ATCC #HB-8065)
Cryopreserved HepG2 cells were thawed in assay medium and centrifuged for 5 min at 250 g. Supernatant was discarded and the cell pellet resuspended in cell medium and counted with a Nucleocounter. Cells were again centrifuged 5 min at 250 g and the pellet was resuspended to 500000 cells/mL in assay medium. • 2. 20 μL of above cell mix was dispensed into black pclear TC treated 384 well plates with Multidrop Combi and left at room temperature for 20 minutes. • 3. Plates were incubated at 37° C., 5% CO2 for 24 h
Test compounds were prepared in concentration response in DMSO with a half-log dilution factor in DMSO in Echo 384 LDV plates starting at 10 mM. • 2. 30 nL of above test compounds were dispensed with Echo 655 to cells for a top concentration of 10 μM • 3. […] Plates were incubated at 37° C., 5% CO2 for 24 h
10 μL pHrodo Red-LDL in assay medium was dispensed to cells with Multidrop Combi for 6 μg/mL • 2. Plates were incubated at 37° C., 5% CO2 and imaged with the Incucyte S3 after 4 h and 24 h
Image data was processed using Incucyte 2021, a software to identify cells and red fluorescent intensity. Screener was used to further process data. Data was normalized as % effect of the signal between median values of the on-plate controls of DMSO and 100 nM Evolocumab according to the formula % effect=−100*(x−DMSO)/(Evolocumab−DMSO) where x equals the measured signal. Concentration response data of the normalized values were fitted using a four-parameter logistic fit.

[3] = molecular target: GSK3b (Glycogen synthase kinase-3 beta) (Homo sapiens, UniProt P49841); assay: Assay 6 - GSK3b assay (ThermoFisher, FRET Z-Lyte); assay type: biochemical; conditions: geometric mean; ATP Conc: 10.000 μM; read-out: Assay 6 (GSK3B FRET-Z-Lyte CR) GMean IC50 (μM) ATP Conc: 10.000
GSK3b (Glycogen synthase kinase-3 beta), sequence (P49841 whole entry): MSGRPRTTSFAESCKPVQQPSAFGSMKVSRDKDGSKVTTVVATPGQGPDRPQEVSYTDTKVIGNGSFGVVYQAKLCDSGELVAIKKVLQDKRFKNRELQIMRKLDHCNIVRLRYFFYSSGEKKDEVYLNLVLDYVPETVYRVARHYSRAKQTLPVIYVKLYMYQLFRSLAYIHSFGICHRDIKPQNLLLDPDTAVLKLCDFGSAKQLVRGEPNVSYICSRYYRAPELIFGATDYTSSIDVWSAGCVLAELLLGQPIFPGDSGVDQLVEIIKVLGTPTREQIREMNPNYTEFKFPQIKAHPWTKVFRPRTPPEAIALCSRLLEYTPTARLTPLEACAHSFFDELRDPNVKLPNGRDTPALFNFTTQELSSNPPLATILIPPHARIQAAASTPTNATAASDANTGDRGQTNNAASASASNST
Description: This assay measures the activity of the compounds at GSK3b (Glycogen synthase kinase-3 beta).
The test compounds were screened in 1% DMSO (final) in the well. For 10-point titrations, 3-fold serial dilutions are conducted from the starting concentration of 10 μM.
• Bar-coded Corning, low volume NBS, black 384-well plate • 1. 2.5 μL—4× Test Compound or 100 nL 100× plus 2.4 μL kinase buffer • 2. 5 μL—2× Peptide/Kinase Mixture • 3. 2.5 μL—4× ATP Solution • 4. 30-second plate shake • 5. 60-minute Kinase Reaction incubation at room temperature • 6. 5 μL—Development Reagent Solution • 7. 30-second plate shake • 8. 60-minute Development Reaction incubation at room temperature • 9. Read on fluorescence plate reader and analyse the data
In step 2, the 2× GSK3β (GSK3 beta)/Ser/Thr (Glycogen synthase kinase-3 beta/Serine/Threonine) 09 mixture is prepared in 50 mM HEPES (4-(2-hydroxyethyl)-1-piperazineethanesulfonic acid) pH 7.5, 0.01% BRIJ-35, 10 mM MgCl2, 1 mM EGTA (egtazic acid). The final 10 μL Kinase Reaction consists of 0.22-0.92 ng GSK3β (GSK3 beta) and 2 μM Ser/Thr 09 in 50 mM HEPES pH 7.5, 0.01% BRIJ-35, 10 mM MgCl2, 1 mM EGTA.
In step 3 the ATP Solution is diluted to a 4× working concentration in Kinase Buffer (50 mM HEPES pH 7.5, 0.01% BRIJ-35, 10 mM MgCl2, 1 mM EGTA).
In Step 6 the Development Reagent is diluted 1:512 in Development Buffer (10× Novel PKC Lipid Mix: 2 mg/mL Phosphatidyl Serine, 0.2 mg/mL DAG in 20 mM HEPES, pH 7.4, 0.3% CHAPS).
SelectScreen® Kinase Profiling Service uses XLfit from IDBS. The dose response curve is curve fit to model number 205 (sigmoidal dose-response model).

[4] = molecular target: T2, potassium ion channel hERG (human Ether-á-go-go-Related Gene) (Homo sapiens, UniProt Q12809); assay: Assay 5 - hERG assay (SyncroPatch 384PE patch clamp, CHO cells); assay type: cell-based; conditions: geometric mean, CHO cells over-expressing hERG, read-out: Assay 5 (hERG Hu CHO IF EPh CR-Syncro) GMean IC50
T2 construct: expressed in transfected cells; host or cells: Chinese hamster ovary K1 (CHO)
T2 sequence (Q12809 whole entry): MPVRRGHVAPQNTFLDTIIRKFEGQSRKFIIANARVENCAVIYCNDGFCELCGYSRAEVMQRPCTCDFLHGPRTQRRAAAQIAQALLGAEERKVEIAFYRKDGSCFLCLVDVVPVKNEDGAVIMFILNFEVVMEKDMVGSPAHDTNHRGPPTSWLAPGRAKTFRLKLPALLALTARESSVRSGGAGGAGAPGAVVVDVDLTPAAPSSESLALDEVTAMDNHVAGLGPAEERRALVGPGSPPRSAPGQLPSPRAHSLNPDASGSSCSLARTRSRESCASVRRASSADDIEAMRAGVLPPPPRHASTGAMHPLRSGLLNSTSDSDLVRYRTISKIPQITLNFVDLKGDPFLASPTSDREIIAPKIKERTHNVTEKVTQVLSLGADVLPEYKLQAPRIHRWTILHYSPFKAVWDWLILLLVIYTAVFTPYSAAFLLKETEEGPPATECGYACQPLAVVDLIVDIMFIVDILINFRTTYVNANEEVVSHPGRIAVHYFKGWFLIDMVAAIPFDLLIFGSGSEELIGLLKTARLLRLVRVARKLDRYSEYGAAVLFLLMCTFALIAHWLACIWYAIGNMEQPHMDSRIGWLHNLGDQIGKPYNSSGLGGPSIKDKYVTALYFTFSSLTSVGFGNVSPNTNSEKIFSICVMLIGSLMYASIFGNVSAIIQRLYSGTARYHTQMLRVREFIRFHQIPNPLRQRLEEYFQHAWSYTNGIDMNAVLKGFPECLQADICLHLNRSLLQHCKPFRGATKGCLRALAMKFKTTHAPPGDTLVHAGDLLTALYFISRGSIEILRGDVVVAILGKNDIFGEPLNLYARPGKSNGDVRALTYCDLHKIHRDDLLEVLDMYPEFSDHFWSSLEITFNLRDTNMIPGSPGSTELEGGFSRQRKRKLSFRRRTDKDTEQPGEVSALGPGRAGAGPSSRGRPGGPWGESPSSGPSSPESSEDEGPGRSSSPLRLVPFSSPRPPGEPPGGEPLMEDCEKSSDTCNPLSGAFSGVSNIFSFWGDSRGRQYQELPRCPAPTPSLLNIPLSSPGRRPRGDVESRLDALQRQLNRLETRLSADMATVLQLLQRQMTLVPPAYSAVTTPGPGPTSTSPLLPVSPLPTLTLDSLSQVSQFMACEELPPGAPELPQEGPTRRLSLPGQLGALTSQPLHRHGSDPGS
Description: Assay 5—hERG Assay (Human Ether-á-go-go-Related Gene)
This assay (human Ether-á-go-go-Related Gene) measures activity of the compounds at the potassium ion channel hERG (human Ether-á-go-go-Related Gene).
Experiments were performed on the SyncroPatch 384PE high throughput patch clamp platform at room temperature and medium resistance chips with 4 patch holes per site. Chinese hamster ovary K1 (CHO) cell lines over-expressing the ion channel of choice (hERG) were used in assay-ready format and kept in liquid nitrogen or were used from live culture. Cells were either thawed and diluted in HBSS or were detached from flasks and resuspended in HBSS. HBSS comprised 140 mM NaCl, 4 mM KCl, 10 mM HEPES and 5 mM Glucose (pH 7.4). The internal patch clamp solution was KF 120 mM, KCl 20 mM, HEPES 10 mM, EGTA 10 mM, and 25 μM Escin (pH 7.2). After the sealing process was complete, the external solution was exchanged for external patch clamp solution comprising NaCl 80 mM, KCl 4 mM, HEPES 10 mM, CaCl2 2 mM, MgCl2 1 mM, glucose 5 mM, and NMDG 60 mM (pH 7.4). All solutions were stored at room temperature, except Escin, which was stored at 4° C. All test compounds were dispensed in greiner-bio 384 well plates and tested in a 6 point cumulative assay (final DMSO concentration 0.33%). Only wells that passed previously agreed acceptance criteria for this platform were used in this analysis (30 MegaOhm seal resistance, Z prime>0.4 and current size>0.2 nA).

Row | Compound | IC50 (PCSK9 [1]) [µM] | IC50 (PCSK9 [2]) [µM] | IC50 [3] [µM] | IC50 [4] [µM]
1 | N#Cc1cccn(-c2ccc(N[C@H]3CC[C@H](Nc4nc5cccnc5s4)C3)nc2)c1=O [Example 23, 2-Oxo-6′-(((1S,3S)-3-(thiazolo[5,4-b]pyridin-2-ylamino)cyclopentyl)amino)-2H-[1,3′-bipyridine]-3-carbonitrile] | 0.0012 | 0.092 | > 10 | 24.6
2 | O=c1c(OC(F)F)cccn1-c1ccc(N[C@H]2CC[C@H](Nc3nc4cccnc4s3)C2)nc1 [Example 81, 3-(Difluoromethoxy)-6′-(((1S,3S)-3-(thiazolo[5,4-b]pyridin-2-ylamino)cyclopentyl)amino)-2H-[1,3′-bipyridin]-2-one] | 0.0015 | 0.108 | > 10 | 6.12
3 | CSc1cnc2[nH]c(N[C@H]3CC[C@H](Nc4ccc(-n5ccccc5=O)cn4)C3)nc2c1 [Example 59, 6′-(((1S,3S)-3-((6-(Methylthio)-3H-imidazo[4,5-b]pyridin-2-yl)amino)cyclopentyl)amino)-2H-[1,3′-bipyridin]-2-one] | 0.0037 | 0.106 | 0.794 | > 13.5
4 | Cc1ncc(-c2ccc(=O)n(-c3ccc(N[C@H]4CC[C@H](Nc5nc6cc(Br)cnc6[nH]5)C4)nc3)c2)cn1 [Example 52, 6′-(((1S,3S)-3-((6-Bromo-3H-imidazo[4,5-b]pyridin-2-yl)amino)cyclopentyl)amino)-5-(2-methylpyrimidin-5-yl)-2H-[1,3′-bipyridin]-2-one] | 0.0045 | 0.59 | 0.178 | > 40
5 | O=c1ccccn1-c1ccc(N[C@H]2CC[C@H](Nc3nc4nccnc4[nH]3)C2)nc1 [Example 80, 6′-(((1S,3S)-3-((1H-Imidazo[4,5-b]pyrazin-2-yl)amino)cyclopentyl)amino)-2H-[1,3′-bipyridin]-2-one] | 0.0051 | 0.158 | 0.305 | > 40
6 | CCc1cnc2[nH]c(N[C@H]3CC[C@H](Nc4ccc(-n5ccccc5=O)cn4)C3)nc2c1 [Example 56, 6′-(((1S,3S)-3-((6-Ethyl-3H-imidazo[4,5-b]pyridin-2-yl)amino)cyclopentyl)amino)-2H-[1,3′-bipyridin]-2-one] | 0.0031 | 0.395 | 3.13 | > 40
7 | O=c1cccnn1-c1ccc(N[C@H]2CC[C@H](Nc3nc4cccnc4[nH]3)C2)nc1 [Example 28, 2-(6-(((1S,3S)-3-((3H-Imidazo[4,5-b]pyridin-2-yl)amino)cyclopentyl)amino)pyridin-3-yl)pyridazin-3(2H)-one] | 0.0057 | 0.173 | > 10 | > 40
8 | O=c1c(OC(F)F)cccn1-c1ccc(N[C@H]2CC[C@H](Nc3nc4cccnc4o3)C2)nc1 [Example 79, 3-(Difluoromethoxy)-6′-(((1S,3S)-3-(oxazolo[5,4-b]pyridin-2-ylamino)cyclopentyl)amino)-2H-[1,3′-bipyridin]-2-one] | 0.0041 | 0.123 | > 10 | 4.57
9 | N#Cc1ccc(=O)n(-c2ccc(N[C@H]3CC[C@H](Nc4nc5cccnc5s4)C3)nc2)c1 [Example 26, 2-Oxo-6′-(((1S,3S)-3-(thiazolo[5,4-b]pyridin-2-ylamino)cyclopentyl)amino)-2H-[1,3′-bipyridine]-5-carbonitrile] | 0.0068 | 0.168 | > 10 | 19.7
10 | O=c1c(Cl)cccn1-c1ccc(N[C@H]2CC[C@H](Nc3nc4cccnc4o3)C2)nc1 [Example 16, 3-Chloro-6′-(((1S,3S)-3-(oxazolo[5,4-b]pyridin-2-ylamino)cyclopentyl)amino)-2H-[1,3′-bipyridin]-2-one] | 0.0016 | 0.081 | > 10 | 28.4
